Drawing on US12435046B2, “Alkynyl quinazoline compounds” (Black Diamond Therapeutics, Inc., priority 2019, dated 2025), this text covers IC50 for 17 compounds.

Common to all, as to assay type: cell-based
Holding throughout (settings): Table A; BaF3 cells, 3 days

For one assay, the target named is T1, EGFR wt (Homo sapiens, UniProt P00533).
T1 construct: expressed in transfected cells; host or cells: BaF3 (murine pro-B) cells, retroviral transduction with pMXs-IRES-Blasticidin
Kind of assay: BaF3 cell proliferation assay (CellTiterGlo), EGFR wt. Here is the method:
(§1) Retroviral Production: EGFR mutants were subcloned into pMXs-IRES-Blasticidin (RTV-016, Cell Biolabs, San Diego, CA). Retroviral expression vector retrovirus was produced by transient transfection of HEK 293T cells with the retroviral EGFR mutant expression vector pMXs-IRES-Blasticidin (RTV-016, Cell Biolabs), pCMV-Gag-Pol vector and pCMV-VSV-G-Envelope vector. Briefly, HEK 293T/17 cells were plated in 100 mm collagen coated plate (354450, Corning Life Sciences, Tewksbury, MA) (4×10^5 per plate) and incubated overnight. The next day, retroviral plasmids (3 ng of EGFR mutant, 1.0 ng of pCMV-Gag-Pol and 0.5 ng pCMV-VSV-G) were mixed in 500 n1 of Optimem (31985, Life Technologies). The mixture was incubated at room temperature for 5 min and then added to Optimem containing transfection reagent Lipofectamine (11668, Invitrogen) and incubated for 20 minutes. Mixture was then added dropwise to HEK 293T cells. The next day the medium was replaced with fresh culture medium and retrovirus was harvested @ 24 and 48 hrs.
(§2) Generation of EGFR mutant stable cell lines: BaF3 cells (1.5E5 cells) were infected with 1 ml of viral supernatant supplemented with 8 ng/ml polybrene by centrifuging for 30 min at 1000 rpm. Cells were placed in a 37° C. incubator overnight. Cells were then spun for 5 minutes to pellet the cells. Supernatant was removed and cells re-infected a fresh 1 ml of viral supernatant supplemented with 8 ng/ml polybrene by centrifuging for 30 min at 1000 rpm. Cells were placed in 37° C. incubator overnight. Cells were then maintained in RPMI containing 10% Heat Inactivated FBS, 2% L-glutamine containing 10 ng/ml IL-3. After 48 hours cells were selected for retroviral infection in 10 […] for one week. Blasticidin resistant populations were washed twice in phosphate buffered saline before plating in media lacking IL-3 to select for IL-3 independent growth.
(§3) Assay for cell proliferation: BaF3 cell lines were resuspended at 1.3E5 c/ml in RPMI containing 10% Heat Inactivated FBS, 2% L-glutamine and 1% Pen/Strep and dispensed in triplicate (17.5E4 c/well) into 96 well plates. To determine the effect of drug on cell proliferation, cells incubated for 3 days in the presence of vehicle control or test drug at varying concentrations. Inhibition of cell growth was determined by luminescent quantification of intracellular ATP content using CellTiterGlo (Promega), according to the protocol provided by the manufacturer. Comparison of cell number on day 0 versus 72 hours post drug treatment was used to plot dose-response curves. The number of viable cells was determined and normalized to vehicle-treated controls. Inhibition of proliferation, relative to vehicle-treated controls was expressed as a fraction of 1 and graphed using PRISM® software (Graphpad Software, San Diego, CA). EC50 values were determined with the same application.
(In general: In ATP-based viability assays light output follows the ATP content of the culture.)

A further assay has as its target T2, EGFR V3 (Homo sapiens, UniProt P00533, DELINS30-297G).
T2 construct: expressed in transfected cells; host or cells: BaF3 (murine pro-B) cells, retroviral transduction with pMXs-IRES-Blasticidin
The assay is described as follows: BaF3 cell proliferation assay (CellTiterGlo), EGFR V3. The method, then:
as §1, §2, §3

In a further assay the target is T3, HER2 S310F (Homo sapiens, UniProt P04626, S310F).
T3 construct: expressed in transfected cells; host or cells: BaF3 (murine pro-B) cells
The assay is described as follows: BaF3 cell proliferation assay (CellTiterGlo), HER2 S310F.

The target in a further assay is T4, HER2 YVMA (Homo sapiens, UniProt P04626, INS775YVMA).
T4 construct: expressed in transfected cells; host or cells: BaF3 (murine pro-B) cells
Kind of assay: BaF3 cell proliferation assay (CellTiterGlo), HER2 YVMA.

The structures appear in SMILES notation.

T1 sequence (P00533 25-1210): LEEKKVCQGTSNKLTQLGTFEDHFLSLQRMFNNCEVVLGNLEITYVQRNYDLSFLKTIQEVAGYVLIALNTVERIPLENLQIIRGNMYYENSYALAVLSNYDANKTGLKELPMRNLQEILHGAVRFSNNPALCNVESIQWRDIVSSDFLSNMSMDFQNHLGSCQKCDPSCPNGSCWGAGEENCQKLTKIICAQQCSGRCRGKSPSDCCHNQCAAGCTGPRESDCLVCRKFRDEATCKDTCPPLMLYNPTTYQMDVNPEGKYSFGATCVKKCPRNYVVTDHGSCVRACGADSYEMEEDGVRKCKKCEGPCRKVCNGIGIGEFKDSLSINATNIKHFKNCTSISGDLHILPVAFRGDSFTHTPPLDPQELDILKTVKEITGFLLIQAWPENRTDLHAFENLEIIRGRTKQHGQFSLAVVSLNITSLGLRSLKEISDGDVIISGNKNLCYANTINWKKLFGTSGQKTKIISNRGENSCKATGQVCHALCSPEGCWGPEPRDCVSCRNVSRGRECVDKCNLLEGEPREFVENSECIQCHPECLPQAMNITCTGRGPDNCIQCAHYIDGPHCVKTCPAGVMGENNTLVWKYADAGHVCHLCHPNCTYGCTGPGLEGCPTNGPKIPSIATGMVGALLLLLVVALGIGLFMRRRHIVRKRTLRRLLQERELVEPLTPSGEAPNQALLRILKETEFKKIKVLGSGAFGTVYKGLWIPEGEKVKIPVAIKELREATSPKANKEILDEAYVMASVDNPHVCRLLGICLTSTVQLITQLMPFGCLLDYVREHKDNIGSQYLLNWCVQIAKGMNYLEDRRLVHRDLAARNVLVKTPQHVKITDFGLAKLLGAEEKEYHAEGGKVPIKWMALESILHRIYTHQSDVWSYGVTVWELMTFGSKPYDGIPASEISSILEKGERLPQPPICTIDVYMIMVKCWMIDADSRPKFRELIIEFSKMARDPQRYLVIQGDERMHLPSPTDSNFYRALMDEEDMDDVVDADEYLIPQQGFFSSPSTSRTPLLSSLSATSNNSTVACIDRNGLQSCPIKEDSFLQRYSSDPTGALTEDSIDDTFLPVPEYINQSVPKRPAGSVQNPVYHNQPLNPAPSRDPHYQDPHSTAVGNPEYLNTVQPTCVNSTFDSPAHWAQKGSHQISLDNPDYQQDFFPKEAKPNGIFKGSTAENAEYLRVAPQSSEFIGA
T3 sequence (P04626 23-1255 S310F): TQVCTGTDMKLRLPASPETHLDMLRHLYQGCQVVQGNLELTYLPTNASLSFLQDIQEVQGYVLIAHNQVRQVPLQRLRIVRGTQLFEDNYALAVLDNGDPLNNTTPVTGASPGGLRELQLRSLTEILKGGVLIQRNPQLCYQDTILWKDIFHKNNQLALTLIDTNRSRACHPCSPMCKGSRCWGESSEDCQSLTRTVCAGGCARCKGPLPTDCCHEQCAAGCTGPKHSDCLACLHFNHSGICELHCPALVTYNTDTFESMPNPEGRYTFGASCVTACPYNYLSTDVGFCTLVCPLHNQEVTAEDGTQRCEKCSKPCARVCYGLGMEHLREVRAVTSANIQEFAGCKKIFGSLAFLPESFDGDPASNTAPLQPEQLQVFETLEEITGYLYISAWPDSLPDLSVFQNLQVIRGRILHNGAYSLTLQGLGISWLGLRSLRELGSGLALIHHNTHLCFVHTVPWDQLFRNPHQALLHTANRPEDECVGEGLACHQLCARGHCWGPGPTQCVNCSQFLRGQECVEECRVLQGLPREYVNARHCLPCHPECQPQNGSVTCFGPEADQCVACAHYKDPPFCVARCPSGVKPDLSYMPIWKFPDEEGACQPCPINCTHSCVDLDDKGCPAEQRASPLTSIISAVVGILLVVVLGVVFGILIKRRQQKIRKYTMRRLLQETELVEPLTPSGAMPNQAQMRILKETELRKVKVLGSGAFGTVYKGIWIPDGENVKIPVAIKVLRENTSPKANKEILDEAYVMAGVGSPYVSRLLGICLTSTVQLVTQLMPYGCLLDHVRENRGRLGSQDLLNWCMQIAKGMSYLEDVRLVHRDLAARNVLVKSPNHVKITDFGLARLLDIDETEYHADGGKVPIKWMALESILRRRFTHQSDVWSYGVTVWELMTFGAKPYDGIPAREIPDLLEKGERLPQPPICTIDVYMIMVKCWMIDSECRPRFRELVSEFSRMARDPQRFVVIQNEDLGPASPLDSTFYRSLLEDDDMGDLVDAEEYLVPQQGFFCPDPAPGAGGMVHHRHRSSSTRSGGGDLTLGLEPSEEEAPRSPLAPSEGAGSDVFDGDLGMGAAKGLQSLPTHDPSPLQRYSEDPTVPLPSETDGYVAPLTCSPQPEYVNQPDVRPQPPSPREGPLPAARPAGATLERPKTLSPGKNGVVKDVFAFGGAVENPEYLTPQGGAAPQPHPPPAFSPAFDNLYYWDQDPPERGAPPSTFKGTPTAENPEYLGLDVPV
T2 sequence (P00533 with tags, fused parts or gaps DELINS30-297G): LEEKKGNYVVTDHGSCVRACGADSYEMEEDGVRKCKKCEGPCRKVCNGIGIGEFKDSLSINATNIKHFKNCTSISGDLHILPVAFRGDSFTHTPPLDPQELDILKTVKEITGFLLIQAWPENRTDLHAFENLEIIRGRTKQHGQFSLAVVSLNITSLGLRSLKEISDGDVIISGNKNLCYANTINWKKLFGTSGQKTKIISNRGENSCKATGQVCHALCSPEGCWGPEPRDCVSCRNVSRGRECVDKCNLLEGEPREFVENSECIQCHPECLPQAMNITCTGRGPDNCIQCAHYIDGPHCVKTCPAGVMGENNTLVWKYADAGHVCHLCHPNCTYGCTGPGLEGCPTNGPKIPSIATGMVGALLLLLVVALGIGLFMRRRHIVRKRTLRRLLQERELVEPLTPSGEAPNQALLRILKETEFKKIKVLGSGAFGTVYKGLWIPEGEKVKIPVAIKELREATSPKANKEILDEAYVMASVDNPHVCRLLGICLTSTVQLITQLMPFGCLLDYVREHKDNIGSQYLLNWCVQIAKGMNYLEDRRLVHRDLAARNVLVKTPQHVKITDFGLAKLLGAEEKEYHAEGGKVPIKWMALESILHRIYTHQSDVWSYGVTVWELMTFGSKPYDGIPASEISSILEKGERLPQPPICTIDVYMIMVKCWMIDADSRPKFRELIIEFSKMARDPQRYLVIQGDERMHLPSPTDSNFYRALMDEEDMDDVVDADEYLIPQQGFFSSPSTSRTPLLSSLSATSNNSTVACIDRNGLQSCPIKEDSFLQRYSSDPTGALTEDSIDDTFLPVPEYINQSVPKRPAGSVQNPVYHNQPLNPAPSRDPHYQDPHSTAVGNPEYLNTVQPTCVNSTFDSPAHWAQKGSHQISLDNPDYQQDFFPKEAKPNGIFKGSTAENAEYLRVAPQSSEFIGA
T4 sequence (P04626 with tags, fused parts or gaps INS775YVMA): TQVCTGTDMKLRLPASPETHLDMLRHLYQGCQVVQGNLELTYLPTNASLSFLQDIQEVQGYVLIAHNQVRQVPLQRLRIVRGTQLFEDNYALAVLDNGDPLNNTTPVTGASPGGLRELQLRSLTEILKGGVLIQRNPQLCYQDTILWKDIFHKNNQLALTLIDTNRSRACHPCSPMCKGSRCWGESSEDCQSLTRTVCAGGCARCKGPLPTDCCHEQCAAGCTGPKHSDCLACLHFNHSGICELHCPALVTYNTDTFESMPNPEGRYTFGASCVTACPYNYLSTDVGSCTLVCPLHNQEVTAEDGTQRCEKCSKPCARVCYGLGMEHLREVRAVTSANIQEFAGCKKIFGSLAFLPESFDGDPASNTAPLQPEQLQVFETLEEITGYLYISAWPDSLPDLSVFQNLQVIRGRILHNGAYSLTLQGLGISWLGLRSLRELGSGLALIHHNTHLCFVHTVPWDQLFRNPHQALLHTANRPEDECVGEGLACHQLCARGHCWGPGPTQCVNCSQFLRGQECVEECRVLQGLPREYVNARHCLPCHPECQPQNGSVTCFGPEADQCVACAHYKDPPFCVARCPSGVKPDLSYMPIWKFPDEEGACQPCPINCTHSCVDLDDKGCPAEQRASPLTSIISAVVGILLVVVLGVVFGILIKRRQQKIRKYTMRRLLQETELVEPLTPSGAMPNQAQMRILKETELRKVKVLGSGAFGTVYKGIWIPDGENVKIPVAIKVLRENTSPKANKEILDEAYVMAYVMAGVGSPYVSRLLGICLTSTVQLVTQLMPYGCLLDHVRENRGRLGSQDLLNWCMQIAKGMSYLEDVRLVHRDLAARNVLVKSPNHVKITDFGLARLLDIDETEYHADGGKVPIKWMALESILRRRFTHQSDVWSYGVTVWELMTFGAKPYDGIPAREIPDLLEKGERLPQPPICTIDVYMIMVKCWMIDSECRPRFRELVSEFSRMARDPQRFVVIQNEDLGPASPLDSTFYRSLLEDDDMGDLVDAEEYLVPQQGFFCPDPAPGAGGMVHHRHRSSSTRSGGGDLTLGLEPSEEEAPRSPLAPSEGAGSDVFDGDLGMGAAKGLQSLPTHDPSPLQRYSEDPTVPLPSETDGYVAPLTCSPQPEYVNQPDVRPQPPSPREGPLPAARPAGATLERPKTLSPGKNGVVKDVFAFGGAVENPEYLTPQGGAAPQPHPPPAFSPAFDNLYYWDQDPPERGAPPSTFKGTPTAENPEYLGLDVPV

Usually IC50 stands for the concentration at which inhibition is half-maximal. Read a high IC50 as weaker potency in that assay. For the compound `COC/C=C/C(=O)Nc1cc2c(Nc3cccc(Cl)c3F)ncnc2cc1C#C[C@@]12C[C@@H]1CN(C)C2` [Compound 21, (E)-N-(4-((3-chloro-2-fluorophenyl)amino)-7-(((1R,5S)-3-methyl-3-azabicyclo[3.1.0]hexan-1-yl)ethynyl)quinazolin-6-yl)-4-methoxybut-2-enamide], the IC50 against EGFR wt was at most 0.05 µM; against EGFR V3, 0.1 to 0.5 µM; at HER2 S310F it was 0.1 to 0.5 µM; at HER2 YVMA, over 0.5 µM.

With `C=C(C)C(=O)Nc1cc2c(Nc3cccc(Cl)c3F)ncnc2cc1C#C[C@@]1(C)CCN(C)C1` [Compound 25, (R)—N-(4-((3-chloro-2-fluorophenyl)amino)-7-((1,3-dimethylpyrrolidin-3-yl)ethynyl)quinazolin-6-yl)methacrylamide], the IC50 on EGFR wt was 0.1 to 0.5 µM; on EGFR V3, over 0.5 µM; at HER2 S310F it was over 0.5 µM; against HER2 YVMA, over 0.5 µM.

Turning to `C=C(CO)C(=O)Nc1cc2c(Nc3cccc(Cl)c3F)ncnc2cc1C#C[C@@]12C[C@@H]1CN(C)C2` [Compound 26, N-[4-(3-chloro-2-fluoro-anilino)-7-[2-[(1R,5S)-3-methyl-3-azabicyclo[3.1.0]hexan-1-yl]ethynyl]quinazolin-6-yl]-2-(hydroxymethyl)prop-2-enamide], the IC50 against EGFR wt is 0.05 to 0.1 µM; at EGFR V3, at most 0.05 µM; at HER2 S310F it was 0.05 to 0.1 µM; on HER2 YVMA, 0.1 to 0.5 µM.

Regarding `C=CC(=O)Nc1cc2c(Nc3cccc(Cl)c3F)ncnc2cc1C#C[C@@]1(F)CCN(C)C1` [Compound 45, N-{4-[(3-chloro-2-fluorophenyl)amino]-7-{2-[(3S)-3-fluoro-1-methylpyrrolidin-3-yl]ethynyl}quinazolin-6-yl}prop-2-enamide], the IC50 on EGFR wt was 0.1 to 0.5 µM; against EGFR V3, at most 0.05 µM; against HER2 S310F it was 0.1 to 0.5 µM; on HER2 YVMA it was over 0.5 µM.

On to `C=CC(=O)Nc1cc2c(Nc3cccc(Cl)c3F)ncnc2cc1C#C[C@]1(F)CCN(C)C1` [Compound 46, N-{4-[(3-chloro-2-fluorophenyl)amino]-7-{2-[(3R)-3-fluoro-1-methyl-pyrrolidin-3-yl]ethynyl}quinazolin-6-yl}prop-2-enamide], for which the IC50 against EGFR wt was 0.1 to 0.5 µM; against EGFR V3, at most 0.05 µM; against HER2 S310F, 0.1 to 0.5 µM; on HER2 YVMA, over 0.5 µM.

On to `C=CC(=O)Nc1cc2c(Nc3cccc(Cl)c3F)ncnc2cc1C#CC1(C)CN(C)C2(COC2)C1` (centres unmarked) [Compound 47, N-(4-((3-chloro-2-fluorophenyl)amino)-7-((5,7-dimethyl-2-oxa-5-azaspiro[3.4]octan-7-yl)ethynyl)quinazolin-6-yl)acrylamide], for which the half-inhibitory concentration (IC50) is over 0.5 µM against EGFR wt, 0.1 to 0.5 µM on EGFR V3, over 0.5 µM on HER2 S310F and over 0.5 µM against HER2 YVMA.

In the case of `C=CC(=O)Nc1cc2c(Nc3cccc(Cl)c3F)ncnc2cc1C#C[C@]12C[C@H]1CN(C1COC1)C2` [Compound 48, N-(4-((3-chloro-2-fluorophenyl)amino)-7-(((1S,5R)-3-(oxetan-3-yl)-3-azabicyclo[3.1.0]hexan-1-yl)ethynyl)quinazolin-6-yl)acrylamide], the IC50 is 0.1 to 0.5 µM against EGFR wt, 0.1 to 0.5 µM at EGFR V3, 0.1 to 0.5 µM at HER2 S310F and over 0.5 µM at HER2 YVMA.

Consider `C=CC(=O)Nc1cc2c(Nc3cccc(Cl)c3F)ncnc2cc1C#C[C@]12C[C@H]1CN(C)C2` [Compound 49, N-(4-((3-chloro-2-fluorophenyl)amino)-7-(((1S,5R)-3-methyl-3-azabicyclo[3.1.0]hexan-1-yl)ethynyl)quinazolin-6-yl)acrylamide], for which the concentration for half-maximal inhibition (IC50) on EGFR wt is 0.05 to 0.1 µM; against EGFR V3, at most 0.05 µM; at HER2 S310F, 0.05 to 0.1 µM; against HER2 YVMA, 0.1 to 0.5 µM.

Consider `C=CC(=O)Nc1cc2c(Nc3cccc(Cl)c3F)ncnc2cc1C#C[C@@]12C[C@@H]1CN(C1COC1)C2` [Compound 50, N-(4-((3-chloro-2-fluorophenyl)amino)-7-(((1R,5S)-3-(oxetan-3-yl)-3-azabicyclo[3.1.0]hexan-1-yl)ethynyl)quinazolin-6-yl)acrylamide], for which the concentration for half-maximal inhibition (IC50) was 0.05 to 0.1 µM against EGFR wt, at most 0.05 µM against EGFR V3, 0.05 to 0.1 µM against HER2 S310F and 0.1 to 0.5 µM against HER2 YVMA.

For `C=CC(=O)Nc1cc2c(Nc3cccc(Cl)c3F)ncnc2cc1C#C[C@@]12C[C@@H]1CN(C)C2` [Compound 51, N-(4-((3-chloro-2-fluorophenyl)amino)-7-(((1R,5S)-3-methyl-3-azabicyclo[3.1.0]hexan-1-yl)ethynyl)quinazolin-6-yl)acrylamide], the IC50 at EGFR wt was 0.05 to 0.1 µM; against EGFR V3, at most 0.05 µM; on HER2 S310F, at most 0.05 µM; against HER2 YVMA it was 0.1 to 0.5 µM.

As to `C=CC(=O)Nc1cc2c(Nc3cccc(Cl)c3F)ncnc2cc1C#CC1(OC)CCN(C)C1` (centres unmarked) [Compound 52, N-(4-((3-chloro-2-fluorophenyl)amino)-7-((3-methoxy-1-methylpyrrolidin-3-yl)ethynyl)quinazolin-6-yl)acrylamide], the IC50 is 0.1 to 0.5 µM on EGFR wt, at most 0.05 µM against EGFR V3, 0.05 to 0.1 µM at HER2 S310F and 0.1 to 0.5 µM against HER2 YVMA.

Consider `C=CC(=O)Nc1cc2c(Nc3cccc(Cl)c3F)ncnc2cc1C#C[C@]1(C)CCCN(C)C1` [Compound 53, (S)—N-(4-((3-chloro-2-fluorophenyl)amino)-7-((1,3-dimethylpiperidin-3-yl)ethynyl)quinazolin-6-yl)acrylamide], for which the IC50 is 0.1 to 0.5 µM against EGFR wt, 0.1 to 0.5 µM against EGFR V3, 0.1 to 0.5 µM at HER2 S310F and over 0.5 µM on HER2 YVMA.

For the compound `C=CC(=O)Nc1cc2c(Nc3cccc(Cl)c3F)ncnc2cc1C#C[C@@]1(C)CCCN(C)C1` [Compound 54, (R)—N-(4-((3-chloro-2-fluorophenyl)amino)-7-((1,3-dimethylpiperidin-3-yl)ethynyl)quinazolin-6-yl)acrylamide], the IC50 against EGFR wt was over 0.5 µM; at EGFR V3, 0.05 to 0.1 µM; at HER2 S310F, 0.1 to 0.5 µM; against HER2 YVMA, over 0.5 µM.

Turning to `C=CC(=O)Nc1cc2c(Nc3cccc(Cl)c3F)ncnc2cc1C#CC1(C)CN(C)CC1(F)F` (centres unmarked) [Compound 55, N-(4-((3-chloro-2-fluorophenyl)amino)-7-((4,4-difluoro-1,3-dimethylpyrrolidin-3-yl)ethynyl)quinazolin-6-yl)acrylamide], the IC50 on EGFR wt is over 0.5 µM; on EGFR V3, 0.1 to 0.5 µM; against HER2 S310F, 0.1 to 0.5 µM; at HER2 YVMA it was over 0.5 µM.

On to `C=CC(=O)Nc1cc2c(Nc3cccc(Cl)c3F)ncnc2cc1C#CC1(C)CCN(CCF)C1` (centres unmarked) [Compound 56, N-(4-((3-chloro-2-fluorophenyl)amino)-7-((1-(2-fluoroethyl)-3-methylpyrrolidin-3-yl)ethynyl)quinazolin-6-yl)acrylamide], for which the IC50 at EGFR wt was 0.1 to 0.5 µM; against EGFR V3 it was at most 0.05 µM; against HER2 S310F, 0.1 to 0.5 µM; against HER2 YVMA it was over 0.5 µM.

As to `CNC(=O)Nc1cc2c(Nc3cccc(Cl)c3F)ncnc2cc1C#CC1(C)CCN(C)C1` (centres unmarked) [Compound 57, 1-(4-((3-chloro-2-fluorophenyl)amino)-7-((1,3-dimethylpyrrolidin-3-yl)ethynyl)quinazolin-6-yl)-3-methylurea], the IC50 against EGFR wt was at most 0.05 µM; against EGFR V3 it was over 0.5 µM; against HER2 S310F, over 0.5 µM; against HER2 YVMA it was over 0.5 µM.

Consider `C=CC(=O)Nc1cc2c(Nc3cccc(Cl)c3F)ncnc2cc1C#C[C@]1(C)CCN(C2COC2)C1` [Compound 58, (S)—N-(4-((3-chloro-2-fluorophenyl)amino)-7-((3-methyl-1-(oxetan-3-yl)pyrrolidin-3-yl)ethynyl)quinazolin-6-yl)acrylamide], for which the IC50 against EGFR wt is 0.1 to 0.5 µM; against EGFR V3 it was at most 0.05 µM; at HER2 S310F, 0.05 to 0.1 µM; against HER2 YVMA it was over 0.5 µM.
